According to US9062071B2, “Substituted piperidines as HDM2 inhibitors” (Merck Sharp & Dohme Corp, priority 2011, dated 2015):
pIC50: −log10 of the molar value.

Target: HDM2 protein (Homo sapiens, UniProt Q00987)
Experiment: fluorescence polarization screening assay (FP IC50)
Format: binding
Settings: class symbols
Procedure: The compounds were evaluated to determine activity at the HDM2 protein by known methods such as the fluorescence polarization screening assay that measures the inhibitory concentration that achieves 50% of maximal activity (FP IC50) and the dissociation constant for inhibitor binding (FP Ki). [Zhang et al., J. Analytical Biochemistry 331: 138-146 (2004)].

HDM2 protein, sequence (Q00987 whole entry): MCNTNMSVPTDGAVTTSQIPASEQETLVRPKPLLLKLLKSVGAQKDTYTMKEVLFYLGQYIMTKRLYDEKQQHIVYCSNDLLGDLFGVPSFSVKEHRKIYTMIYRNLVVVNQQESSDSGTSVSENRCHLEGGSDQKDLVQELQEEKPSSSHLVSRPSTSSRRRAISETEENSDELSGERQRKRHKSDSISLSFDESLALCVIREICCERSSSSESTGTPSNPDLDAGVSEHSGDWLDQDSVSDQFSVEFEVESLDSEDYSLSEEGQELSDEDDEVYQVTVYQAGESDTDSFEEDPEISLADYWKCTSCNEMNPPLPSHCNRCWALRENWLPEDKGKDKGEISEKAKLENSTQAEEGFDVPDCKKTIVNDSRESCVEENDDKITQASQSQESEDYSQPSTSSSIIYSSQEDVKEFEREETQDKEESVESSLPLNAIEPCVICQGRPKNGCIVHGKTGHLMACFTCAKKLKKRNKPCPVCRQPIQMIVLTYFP

Row | SMILES | pIC50
1 | CCC[C@H]1N(C(=O)c2ncccc2C(F)(F)F)CCC[C@@]1(Oc1csc(C(F)(F)F)c1)C(=O)N1CCc2ccsc2C1CC(C)(C)C(=O)OCC (stereo partly drawn) [Compound A28, ethyl 2,2-dimethyl-3-(6-{[(2R,3S)-2-propyl-1-{[3-(trifluoromethyl)pyridin-2-yl]carbonyl}-3-{[5-(trifluoromethyl)thiophen-3-yl]oxy}piperidin-3-yl]carbonyl}-4,5,6,7-tetrahydrothieno[2,3-c]pyridin-7-yl)propanoate] | 4.70 to 7.00
2 | CCC[C@H]1N(C(=O)c2ncccc2C(F)(F)F)CCC[C@@]1(Oc1csc(C(F)(F)F)c1)C(=O)N1CCc2ccsc2C1CC(C)(C)C(=O)O (stereo partly drawn) [Compound A29, 2,2-dimethyl-3-(6-{[(2R,3S)-2-propyl-1-{[3-(trifluoromethyl)pyridin-2-yl]carbonyl}-3-{[5-(trifluoromethyl)thiophen-3-yl]oxy}piperidin-3-yl]carbonyl}-4,5,6,7-tetrahydrothieno[2,3-c]pyridin-7-yl)propanoic acid] | 7.00 to 9.00
3 | CCC[C@H]1N(C(=O)c2ncccc2C(F)(F)F)CCC[C@@]1(Oc1csc(C(F)(F)F)c1)C(=O)N1CCc2ccsc2C1CC(C)(C)C(=O)NCc1nnn[nH]1 (stereo partly drawn) [Compound A30, 2,2-dimethyl-3-(6-{[(2R,3S)-2-propyl-1-{[3-(trifluoromethyl)pyridin-2-yl]carbonyl}-3-{[5-(trifluoromethyl)thiophen-3-yl]oxy}piperidin-3-yl]carbonyl}-4,5,6,7-tetrahydrothieno[2,3-c]pyridin-7-yl)-N-(1H-tetrazol-5-ylmethyl)propanamide] | 7.00 to 9.00
4 | CCC[C@H]1N(C(=O)c2ncccc2C(F)(F)F)CCC[C@@]1(Oc1csc(C(F)(F)F)c1)C(=O)N1CCc2cc(Cl)sc2C1CC(C)(C)C(=O)O (stereo partly drawn) [Compound A31, 3-(2-chloro-6-{[(2R,3S)-2-propyl-1-{[3-(trifluoromethyl)pyridin-2-yl]carbonyl}-3-{[5-(trifluoromethyl)thiophen-3-yl]oxy}piperidin-3-yl]carbonyl}-4,5,6,7-tetrahydrothieno[2,3-c]pyridin-7-yl)-2,2-dimethylpropanoic acid] | 7.00 to 9.00
5 | CCC[C@H]1N(C(=O)c2ncccc2C(F)(F)F)CCC[C@@]1(Oc1csc(C(F)(F)F)c1)C(=O)N1CCc2sc(Cl)cc2C1CCCN1CCOCC1 (stereo partly drawn) [Compound A32, 2-chloro-4-(3-morpholin-4-ylpropyl)-5-{[(2R,3S)-2-propyl-1-{[3-(trifluoromethyl)pyridin-2-yl]carbonyl}-3-{[5-(trifluoromethyl)thiophen-3-yl]oxy}piperidin-3-yl]carbonyl}-4,5,6,7-tetrahydrothieno[3,2-c]pyridine] | 4.70 to 7.00
6 | CCC[C@H]1N(C(=O)c2ncccc2C(F)(F)F)CCC[C@@]1(Oc1csc(C(F)(F)F)c1)C(=O)N1CCc2sc(Cl)cc2C1CCCN1CCCC1 (stereo partly drawn) [Compound A33, 2-chloro-5-{[(2R,3S)-2-propyl-1-{[3-(trifluoromethyl)pyridin-2-yl]carbonyl}-3-{[5-(trifluoromethyl)thiophen-3-yl]oxy}piperidin-3-yl]carbonyl}-4-(3-pyrrolidin-1-ylpropyl)-4,5,6,7-tetrahydrothieno[3,2-c]pyridine] | 4.70 to 7.00
7 | CCC[C@H]1N(C(=O)c2ncccc2C(F)(F)F)CCC[C@@]1(Oc1csc(C(F)(F)F)c1)C(=O)N1CCc2sc(Cl)cc2C1C(=O)NC (stereo partly drawn) [Compound A34, 2-chloro-N-methyl-5-{[(2R,3S)-2-propyl-1-{[3-(trifluoromethyl)pyridin-2-yl]carbonyl}-3-{[5-(trifluoromethyl)thiophen-3-yl]oxy}piperidin-3-yl]carbonyl}-4,5,6,7-tetrahydrothieno[3,2-c]pyridine-4-carboxamide] | 4.70 to 7.00
8 | CCC[C@H]1N(C(=O)c2ncccc2C(F)(F)F)CCC[C@@]1(Oc1csc(C(F)(F)F)c1)C(=O)N1CCc2sc(Cl)cc2C1CN1CCCC1 (stereo partly drawn) [Compound A35, 2-chloro-5-{[(2R,3S)-2-propyl-1-{[3-(trifluoromethyl)pyridin-2-yl]carbonyl}-3-{[5-(trifluoromethyl)thiophen-3-yl]oxy}piperidin-3-yl]carbonyl}-4-(pyrrolidin-1-ylmethyl)-4,5,6,7-tetrahydrothieno[3,2-c]pyridine] | 4.70 to 7.00

Second part, the compound after the results:

Row | pIC50 | SMILES
9 | 7.00 to 9.00 | CCC[C@H]1N(C(=O)c2ncccc2C(F)(F)F)CCC[C@@]1(Oc1csc(C(F)(F)F)c1)C(=O)N1CCc2sc(Cl)cc2C1CCC(=O)NS(C)(=O)=O (stereo partly drawn) [Compound A36, 3-(2-chloro-5-{[(2R,3S)-2-propyl-1-{[3-(trifluoromethyl)pyridin-2-yl]carbonyl}-3-{[5-(trifluoromethyl)thiophen-3-yl]oxy}piperidin-3-yl]carbonyl}-4,5,6,7-tetrahydrothieno[3,2-c]pyridin-4-yl)-N-(methylsulfonyl) propanamide]
10 | 7.00 to 9.00 | CCC[C@H]1N(C(=O)c2ncccc2C(F)(F)F)CCC[C@@]1(Oc1csc(C(F)(F)F)c1)C(=O)N1CCc2sc(Cl)cc2C1CCC(=O)NS(C)(=O)=O (stereo partly drawn) [Compound A37, 3-(2-chloro-5-{[(2R,3S)-2-propyl-1-{[3-(trifluoromethyl)pyridin-2-yl]carbonyl}-3-{[5-(trifluoromethyl)thiophen-3-yl]oxy}piperidin-3-yl]carbonyl}-4,5,6,7-tetrahydrothieno[3,2-c]pyridin-4-yl)-N-(methylsulfonyl) propanamide]
11 | 7.00 to 9.00 | CCC[C@H]1N(C(=O)c2ncccc2C(F)(F)F)CCC[C@@]1(Oc1csc(C(F)(F)F)c1)C(=O)N1Cc2ccc(Cl)cc2C[C@@H]1COCC(=O)O [Compound A38, {[(3R)-6-chloro-2-{[(2R,3S)-2-propyl-1-{[3-(trifluoromethyl)pyridin-2-yl]carbonyl}-3-{[5-(trifluoromethyl)thiophen-3-yl]oxy}piperidin-3-yl]carbonyl}-1,2,3,4-tetrahydroisoquinolin-3-yl]methoxy}acetic acid]
12 | 7.00 to 9.00 | CCC[C@H]1N(C(=O)c2ncccc2C(F)(F)F)CCC[C@@]1(Oc1csc(C(F)(F)F)c1)C(=O)N1CCc2cc(F)ccc2C1CCC(=O)O (stereo partly drawn) [Compound A39, 3-(6-fluoro-2-{[(2R,3S)-2-propyl-1-{[3-(trifluoromethyl)pyridin-2-yl]carbonyl}-3-{[5-(trifluoromethyl)thiophen-3-yl]oxy}piperidin-3-yl]carbonyl}-1,2,3,4-tetrahydroisoquinolin-1-yl)propanoic acid]
13 | 7.00 to 9.00 | CCC[C@H]1N(C(=O)c2ncccc2C(F)(F)F)CCC[C@@]1(Oc1csc(C(F)(F)F)c1)C(=O)N1CCc2cc(F)ccc2C1CCCCC(=O)O (stereo partly drawn) [Compound A40, 5-(6-fluoro-2-{[(2R,3S)-2-propyl-1-{[3-(trifluoromethyl)pyridin-2-yl]carbonyl}-3-{[5-(trifluoromethyl)thiophen-3-yl]oxy}piperidin-3-yl]carbonyl}-1,2,3,4-tetrahydroisoquinolin-1-yl)pentanoic acid]
14 | 7.00 to 9.00 | CCC[C@H]1N(C(=O)c2ncccc2C(F)(F)F)CCC[C@@]1(Oc1csc(C(F)(F)F)c1)C(=O)N1CCc2cc(F)ccc2C1CCCCC(=O)O (stereo partly drawn) [Compound A41, 5-(6-fluoro-2-{[(2R,3S)-2-propyl-1-{[3-(trifluoromethyl)pyridin-2-yl]carbonyl}-3-{[5-(trifluoromethyl)thiophen-3-yl]oxy}piperidin-3-yl]carbonyl}-1,2,3,4-tetrahydroisoquinolin-1-yl)pentanoic acid]
